Results: publication PMC11750672, “The in vivo metabolic pathway of Deg-AZM and in vitro investigations into the contribution of drug metabolizing enzymes and drug transporters in the drug interactions of Deg-AZM, a clinical-stage new transgelin agonist” (Frontiers in Pharmacology, 2025)

Assays:
CYP1A2 = experiment: CYP induction (mRNA, qPCR) in human hepatocytes; assay type: in vitro ADME; settings: for CYP1A2 induction, % of PC: PC omeprazole 50 μM
From the text: After culture and complete induction, total mRNA was extracted by TRNzol RNA Extraction Kit (purchased from Tiangen Biochemical Technology Co., Ltd., Beijing). The RNA was reverse transcribed into cDNA according to the instructions of the Transcriptor First Strand cDNA Synthesis Kit (purchased from Roche, Switzerland). Using reverse transcribed cDNA as a template, amplifying the internal reference genes of β-Actin of the sample and target genes of CYP1A2, CYP2B6, and CYP3A4 respectively to compare the expression differences.

[1] = Exposure profiles of Deg-AZM and metabolites in rat plasma, urine, feces and bile (UPLC-QTOF-MS); assay type: in vivo, rats; settings: / = not detected
Procedure: The plasma samples at 0.167 h, 0.5 h, 3 h and 8 h after administration were obtained from the study of tissue distribution in rats ([Gu et al., 2024]). Urine, feces and bile samples at 0–24 h after administration were obtained from the excretion study of a single gavage administration of 25 mg/kg Deg-AZM in rats ([Gu et al., 2024]).
Plasma samples were precipitated with methanol at a ratio of 1:3. Urine samples were diluted with 50% methanol at a ratio of 1:80. The feces was thoroughly ground and sonicated with a 50% methanol at a ratio of 1 g/10 mL to obtain the homogenate, then the homogenate were precipitated with methanol at a ratio of 1:1. Bile samples were precipitated with 50% methanol at a ratio of 1:1. The above obtained samples were vortexed for 1 min and centrifugated at 4°C, 12,000 rpm for 10 min. Finally, the upper layer was analyzed using the UPLC-QTOF-MS system.
The metabolites of Deg-AZM in the plasma, urine, feces and bile samples were identified by UPLC-QTOF-MS system. Liquid chromatography was performed on an ACQUITY UPLC^TM I-Class UPLC unit with a Waters ACQUITY UPLC HSS T3 (100 × 2.1 mm, 1.8 µm). A gradient program was employed with the mobile phase combining solvent A (0.02% formic acid in 5% acetonitrile) and solvent B (acetonitrile) as follows: 100% A (0–0.5 min), 100%–85% A (0.5–7 min), 85%–5% A (7–9 min), 5% A (9–12 min), 5%–100% A (12–15 min). The flow rate was 0.40 mL/min. The column temperature was maintained at 40°C.
A Waters Q-TOF Xevo G2-XS Spectrometer equipped with ESI source under positive ion mode was utilized to conduct mass spectrometry detection, for which the MS^E mode was set at the mass range of 100–1,000 Da. The cone voltage was 40 V. The desolvation temperature was set at 500°C and source temperature was 100°C. The desolvation gas flow rate was 800 L/h and the cone gas flow rate was 50 L/h. In MS^E centroid mode, the MS data were acquired with the low energy function in the trap collision energy (6 eV), and the tandem mass data were acquired with the high energy function in the ramp trap collision energy (35–45 eV).
The extraction ion chromatogram of plasma samples at 0.167 h, 0.5 h, 3 h and 8 h after administration of Deg-AZM in rats was shown in Figure 2. The extraction ion chromatogram of urine, feces and bile samples collected from 0 to 24 h after oral administration of Deg-AZM in rats was shown in Figure 3. The AUC0-t of Deg-AZM and its metabolites in plasma sample were calculated by trapezoidal rule based on the chromatographic peak area. 21 metabolites were found in rat plasma, with M0 (Deg-AZM) and metabolite M2 (demethylated) being the main exposure forms in rat plasma. M0 and M2 accounted for 61.6% and 23.0% of the total related substances in rat plasma, respectively. The relative proportions of Deg-AZM and its metabolites in urine, feces and bile samples were evaluated by the chromatographic peak area, as shown in Figure 4. The detailed proportion of Deg-AZM and its metabolites could be found in Supplementary Table S1. M0 and 28 metabolites were found in the urine of rats. […] M0 and 42 metabolites were found in the feces of rats. Metabolite M1-2 (monohydroxylation, 18.1%) and metabolite M2 (16.6%) were the main forms of fecal excretion of Deg-AZM in rats after oral administration. M0 and 38 metabolites were found in the bile samples of rats. Metabolite M1-2 (monohydroxylation, 19.2%) and metabolite M2 (16.5%) were the main forms of biliary excretion of Deg-AZM in rats after oral administration.

- CYP1A2 induction, % of PC (CYP1A2; 5 μM, batch HUB): −0.318%
- CYP1A2 induction, % of PC (CYP1A2; 5 μM, batch LHuf 17905B): −0.507%
- CYP1A2 induction, % of PC (CYP1A2; 5 μM, batch MWB): 0.0293%
- CYP1A2 mRNA induction, times of control group (CYP1A2; 5 μM, hepatocyte batch HUB): 0.850
- CYP1A2 mRNA induction, times of control group (CYP1A2; 5 μM, hepatocyte batch LHuf 17905B): 0.721
- CYP1A2 mRNA induction, times of control group (CYP1A2; 5 μM, hepatocyte batch MWB): 1.02
- CYP1A2 induction, % of PC (CYP1A2; 25 μM, batch HUB): −0.349%
- CYP1A2 induction, % of PC (CYP1A2; 25 μM, batch LHuf 17905B): −0.569%
- CYP1A2 induction, % of PC (CYP1A2; 25 μM, batch MWB): −0.0814%
- CYP1A2 mRNA induction, times of control group (CYP1A2; 25 μM, hepatocyte batch HUB): 0.835
- CYP1A2 mRNA induction, times of control group (CYP1A2; 25 μM, hepatocyte batch LHuf 17905B): 0.687
- CYP1A2 mRNA induction, times of control group (CYP1A2; 25 μM, hepatocyte batch MWB): 0.948
- CYP1A2 induction, % of PC (CYP1A2; 100 μM, batch HUB): 0.0545%
- CYP1A2 induction, % of PC (CYP1A2; 100 μM, batch LHuf 17905B): −0.209%
- CYP1A2 induction, % of PC (CYP1A2; 100 μM, batch MWB): −0.319%
- CYP1A2 mRNA induction, times of control group (CYP1A2; 100 μM, hepatocyte batch HUB): 1.03
- CYP1A2 mRNA induction, times of control group (CYP1A2; 100 μM, hepatocyte batch LHuf 17905B): 0.885
- CYP1A2 mRNA induction, times of control group (CYP1A2; 100 μM, hepatocyte batch MWB): 0.797
- Induction effect on CYP1A2 (conclusion) (CYP1A2; 5, 25, and 100 µM, three batches of human hepatocytes): no induction effect
Structure (SMILES): CCC1OC(=O)C(C)C(O)C(C)C(O)C(C)(O)CC(C)CN(C)C(C)C(O)C1(C)O (centres unmarked) [Deg-AZM, Deglycosylated azithromycin]
- Proportion in total related substances, Bile ([1]; rat bile 0-24 h, single gavage 25 mg/kg Deg-AZM, by peak area): 7.95%
- Proportion in total related substances, Feces ([1]; rat feces 0-24 h, single gavage 25 mg/kg Deg-AZM, by peak area): 9.12%
- Proportion in total related substances, Plasma ([1]; rat plasma 0.167-8 h after oral Deg-AZM, by AUC0-t of chromatographic peak area): 61.6%
- Proportion in total related substances, Urine ([1]; rat urine 0-24 h, single gavage 25 mg/kg Deg-AZM, by peak area): 62.9%
